{"source": "patent US20120316199A1", "about": "“COMPOSITIONS AND METHODS FOR TREATING, CONTROLLING, REDUCING, OR AMELIORATING INFLAMMATORY PAIN” (priority 2011, published 2012)", "key": {"[1]": {"system": "PGE2 in the aqueous humor", "assay": "Prostaglandin E2 (PGE2) measurement in aqueous humor, rabbit paracentesis model", "assay_type": "in vivo, Rabbit (New Zealand)", "conditions": "for PGE2 in aqueous humor, statistical significance versus CTR: p<0.05; for PGE2 level in aqueous humor, Mean: second paracentesis, group mean", "protocol": "(§1) Each rabbit was placed in a restraint device and tagged with the alphanumeric code. The formulations were instilled (50 μl) into the conjunctival sac of both eyes 180, 120, 90 and 30 min before the first paracentesis; then 15, 30, 90 min after the first paracentesis. To perform the first paracentesis the animals were anaesthetized by intravenous injection of 5 mg/kg Zoletil® (Virbac; 2.5 mg/kg tiletamine HCl and 2.5 mg/kg zolazepam HCl) and one drop of local anesthetic (Novesina®, Novartis) was administered to the eye. Anterior chamber paracentesis was performed with a 26 G needle attached to a tuberculin syringe; the needle was introduced into the anterior chamber through the cornea, taking care not to damage the tissues. Two hours after the first paracentesis, the animals were sacrificed with 0.4 ml Tanax® (Intervet International B.V.) and the second paracentesis was performed. About 100 μl of aqueous humor were removed at the second paracentesis. Aqueous humor was immediately split in four aliquots and stored at −80° C. until analysis. Then both eyes were enucleated and the iris-ciliary body was carefully excised, placed in polypropylene tubes, and stored at −80° C. until analysis.\nFor the quantitative determination of PGE2 in the aqueous humor we used the PGE2 Immunoassay kit (R&D Systems; Cat. No. KGE004; Lot. No. 240010). Eleven microliters or 16 μl of aqueous humor were diluted to 110 μl or 160 μl with the calibrator diluent solution provided with the kit. One hundred microliters of samples and of standards were load into a 96-well plate and recorded in a plate layout. Samples were treated following the assay procedure described in the kit. A microplate reader (GDV, Italy; model DV 990 B/V6) set at 450 nm (wavelength correction at 540 nm) was used for making the calibration and analyzing the samples.\n(§2) Pupillary diameter, PGE2, protein, PMN, and MPO were expressed as mean±SEM. Statistical analysis was performed using one way ANOVA followed by a Newman-Keuls post hoc test. Clinical score was expressed as % of eyes and the statistical analysis was performed using Kruskal-Wallis followed by a Dunn post hoc test. P<0.05 was considered statistically significant in both cases. Prism 4 software (GraphPad Software, Inc.) was used for the analysis and graphs."}, "[2]": {"system": "intraocular pressure (IOP)", "assay": "Clinical study after cataract surgery: intraocular pressure (safety)", "assay_type": "in vivo, human", "description": "There were 8 treatment groups in this study, consisting of three drug doses, vehicle and three dosing frequencies (see also Table 4-1): • Group A: 1% BOL-303242-X ophthalmic suspension, two times per day (BID) • Group B: 2% BOL-303242-X ophthalmic suspension, one time per day (QD) • Group C: 2% BOL-303242-X ophthalmic suspension, BID • Group D: 2% BOL-303242-X ophthalmic suspension, four times per day (QID) • Group E: 3% BOL-303242-X ophthalmic suspension, QD • Group F: 3% BOL-303242-X ophthalmic suspension, BID • Group G: 3% BOL-303242-X ophthalmic suspension, QID • Group H: Vehicle for BOL-303242-X (divided equally into QID, BID, and QD)\nVisit 1 (screening), Visit 2 (cataract surgery), Visit 3 (postoperative Day 1), Visit 4 (postoperative Day 3±1 day), Visit 5 (postoperative Day 8±1 day), Visit 6 (postoperative Day 15±1 day), Visit 7 (postoperative Day 18±1 day). Subject assessments included adverse events (AEs), concomitant medications, ocular symptoms, pinholed Snellen visual acuity (VA), intraocular pressure (IOP), ocular signs (biomicroscopy), fundoscopy, and study drug drop sensation. In addition, subject diaries were collected and reviewed for accuracy and treatment compliance.\nSafety: The safety endpoints in this study were: incidence of AEs, change in IOP, ocular signs (biomicroscopy), Snellen VA, fundoscopy, study drug drop sensation assessment."}, "[3]": {"system": "MPO activity in iris-ciliary body", "assay": "Myeloperoxidase (MPO) activity in iris-ciliary body, rabbit paracentesis model", "assay_type": "in vivo, Rabbit (New Zealand)", "conditions": "for MPO activity in iris-ciliary body: individual samples collected after the second paracentesis, listed as BOL; for MPO activity in iris-ciliary body, Mean: after the second paracentesis, group mean", "protocol": "as §1\nThe activity of MPO was measured as previously described by Williams et al.[5] The iris-ciliary bodies were carefully dried, weighed and immersed in 1 ml of hexa-decyl-trimethyl-ammonium bromide solution. Then, the samples were sonicated for 10 sec on ice by a ultrasound homogenizer (HD 2070, Bandelin electronic), freeze-thawed three times, sonicated for 10 sec and centrifuged at 14,000 g for 10 min to remove cellular debris. An aliquot of the supernatant (40-200 μl) was diluted to 3 ml with the o-dianisidine 2HCl/H2O2 solution. The change in absorbance at 460 nm was continuously monitored for 5 min by a spectrophotometer (UV/Vis Spectrometer Lambda EZ 201; Perkin Elmer). The slope of the line (Δ/min) was determined for each sample and used to calculate the number of units of MPO in the tissue as follows:\nValues were expressed as units of MPO/g of tissue.\nas §2"}, "rabbit eyes": {"system": "rabbit eyes", "assay": "Ophthalmic observations (slit lamp, McDonald Shadduck scores) in New Zealand White rabbits", "assay_type": "in vivo", "design": "key to Ophthalmic Observation (Slit-Lamp): AN = Appeared normal; key to Cornea Score: CORNEA 1 = Some loss of transparency. Only the epithelium and/or the anterior half of the stoma are involved. The underlying structures are clearly visible although some cloudiness may be readily apparent", "protocol": "Prior to placement on study, each animal underwent a pre-treatment ophthalmic examination (slit lamp and indirect ophthalmoscopy). Observations were scored according to the McDonald Shadduck system and recorded using a standardized data collection sheet.\nOn Days 1-31, animals received daily topical doses of the appropriate test article into the right eye. Animals were dosed four times per day, with doses administered 2 hours apart. Doses were administered using a calibrated 50-μL pipette. The eyelids were held close for 10 seconds immediately following dosing. The time of each dose administration was recorded.\nOphthalmic examinations (slit lamp) were performed prior to the first dosing on Days 5, 12, 22, 26, and 33. Ocular findings were scored according to the McDonald Shadduck system and recorded using a standardized data collection sheet."}, "[4]": {"conditions": "Group B, 10 mg/g, treated right eye, individual animals"}, "[5]": {"conditions": "Group C, 5 mg/g, treated right eye, individual animals"}}, "note": "Where “and” joins values, the source holds several entries; their conditions need not be identical. Identical values can stand only once.", "data": [{"compound": "Cc1ccc2c(NC[C@](O)(CC(C)(C)c3cc(F)cc4c3OCC4)C(F)(F)F)cccc2n1", "note": "[BOL-303242-X, mapracorat]", "values": [{"measurement": "PGE2 in aqueous humor, statistical significance versus CTR", "setting": "[1]; 0.1% formulation", "result": "statistically significant versus CTR"}, {"measurement": "PGE2 level in aqueous humor, Mean", "setting": "[1]; 0.1% formulation", "result": 1.452, "unit": "ng/mL"}, {"measurement": "PGE2 in aqueous humor, statistical significance versus CTR", "setting": "[1]; 0.5% formulation", "result": "statistically significant versus CTR"}, {"measurement": "PGE2 level in aqueous humor, Mean", "setting": "[1]; 0.5% formulation", "result": 1.384, "unit": "ng/mL"}, {"measurement": "PGE2 level in aqueous humor, Mean", "setting": "[1]; 1% formulation", "result": 2.168, "unit": "ng/mL"}, {"measurement": "mean IOP values among dose groups", "setting": "[2]; 2% QID and 3% QD groups, Visit 4 (postoperative Day 3) to Visit 7 (postoperative Day 18)", "result": "lowest mean TOP values"}, {"measurement": "proportion of subjects with mean IOP changes from baseline of ≧5 mmHg or ≧10 mmHg, compared to vehicle", "setting": "[2]; any dose groups at any study visits", "result": "no statistically significant differences"}, {"measurement": "MPO activity in iris-ciliary body", "setting": "[3]; 0.1% BOL", "result": "1.04 Unit/g and 1.14 Unit/g and 1.06 Unit/g and 1.22 Unit/g and 1.05 Unit/g"}, {"measurement": "MPO activity in iris-ciliary body, Mean", "setting": "[3]; 0.1% formulation", "result": 0.971, "unit": "MPO Unit/g"}, {"measurement": "MPO activity in iris-ciliary body", "setting": "[3]; 0.5% BOL", "result": 1.03, "unit": "Unit/g"}, {"measurement": "MPO activity in iris-ciliary body, Mean", "setting": "[3]; 0.5% formulation", "result": 0.775, "unit": "MPO Unit/g"}, {"measurement": "MPO activity in iris-ciliary body", "setting": "[3]; 1% BOL", "result": 1.02, "unit": "Unit/g"}, {"measurement": "MPO activity in iris-ciliary body, Mean", "setting": "[3]; 1% formulation", "result": 0.542, "unit": "MPO Unit/g"}, {"measurement": "Slit-lamp ophthalmic finding in dosed right eye", "setting": "rabbit eyes; 1 mg/g suspension, one eye (Group D, No. 3043)", "result": "subconjunctival hemorrhage"}, {"measurement": "Slit-lamp ophthalmic finding in dosed right eye", "setting": "rabbit eyes; 10 mg/g suspension, one eye (Group B, No. 3083)", "result": "pinpoint corneal scar"}, {"measurement": "Surface area of cornea involvement Score", "setting": "rabbit eyes; Group B, 10 mg/g, treated right eye, animal 3083, Day 5", "result": "1 (SURFACE AREA OF CORNEA INVOLVEMENT 1 = 1-25% area of stromal cloudiness.)"}, {"measurement": "Cornea Score", "setting": "rabbit eyes; Group B, 10 mg/g, treated right eye, animal 3083, Day 5, pinpoint corneal scar", "result": "1^(2)"}, {"measurement": "Conjunctival congestion Score", "setting": "rabbit eyes; [4]", "result": 1}, {"measurement": "Ophthalmic Observation (Slit-Lamp)", "setting": "rabbit eyes; [4]", "result": "AN"}, {"measurement": "Conjunctival congestion Score", "setting": "rabbit eyes; [5]", "result": 1}, {"measurement": "Ophthalmic Observation (Slit-Lamp)", "setting": "rabbit eyes; [5]", "result": "AN"}, {"measurement": "Conjunctival congestion Score", "setting": "rabbit eyes; Group D, 1 mg/g, treated right eye, individual animal, Day 22", "result": 1}, {"measurement": "Ophthalmic Observation (Slit-Lamp)", "setting": "rabbit eyes; Group D, 1 mg/g, treated right eye, individual animals", "result": "AN"}, {"measurement": "Ophthalmic observation associated with unilateral topical instillation", "setting": "rabbit eyes; four times daily up to 31 days, BOL-303242-X 0.05, 0.25, or 0.5 mg/dose, dexamethasone 0.05 mg/dose", "result": "sporadic mild conjunctival congestion"}]}]}
